The text below walks through data of publication PMC7156724, “Potent BRD4 inhibitor suppresses cancer cell-macrophage interaction” (Nature Communications, 2020).

“And” between values parts separate entries of the source, which are not always exact repeats. Identical values can stand only once.

Usually IC50 stands for the midpoint of a concentration-inhibition curve.

Assay [1] deals with T1, BRD4 (BD1+BD2) (Homo sapiens, UniProt O60885).
T1 construct: purchased BPS 32612
Kind of assay: BRD4 (BD1+BD2) TR-FRET binding assay. Particulars: for Biochemical activity against BRD4 (BD1 + BD2): replicates; for IC50: average IC50, nM, read-out: IC50, biochemical activity against BRD4 (BD1 + BD2). From the text: 2. BRD4 binding assay. The inhibitory effects of NHWD-530, NHWD-540, NHWD- […]
(BPS, Cat # 32612) per manufacturer’s instructions. […]
(In TR-FRET formats the signal depends on donor and acceptor labels being close together.)

Assay [2] concerns NCI-H211 small cell lung cancer (SCLC) cells. Kind of assay: AlamarBlue assay, NCI-H211. Particulars: for Cellular activity in SCLCs (H211), alamarBlue: Fig.1e, replicates; for IC50: Homo sapiens, NCI-H211, 72 h, 72 h treatment, nM, read-out: IC50, cellular activity in NCI-H211 (alamarBlue). The format is cell-based. The method, then:
(§1) 3. AlamarBlue assay. AlamarBlue was made by resazurin sodium salt (Sigma, Cat
(§2) # 199303) dissolved in PBS.
(§3) NCI-H211, MDA-MB231 and A375 cells were plated in 96-well plates at approximately 30% confluence and left overnight to adhere. In the following day, […]
(§4) of treatment, 10 μl AlamarBlue reagent (0.3 mg/ml) was added to each well, and after 18h, the florescence intensity in each well was measured using a top-reading fluorescent plate reader with excitation at 530 nm and emission at 590 nm. […]
On the technique in general: Resazurin is reduced to fluorescent resorufin, in cell work by metabolically active cells.

In assay [3] the test system is MDA-MB231 triple negative breast cancer (TNBC) cells. In words: AlamarBlue assay, MDA-MB231. The following applies: for Cellular activity in TNBCs (MDA-MB231), alamarBlue: Fig.1f, replicates; for IC50: Homo sapiens, MDA-MB-231, 72 h, 72 h treatment, nM, read-out: IC50, cellular activity in MDA-MB231 (alamarBlue). Format: cell-based, human. Here is the method:
as §1, §2, §3, §4

[4] abbreviates: Fig.1b, concentration(nM) 0.0339849.
The mark [5] stands for this setting: Fig.1b, concentration(nM) 0.137272.
Setting [6] is: Fig.1b, concentration(nM) 0.614394.
[7] abbreviates: Fig.1b, concentration(nM) 1.09152.
[8] abbreviates: Fig.1b, concentration(nM) 1.56864.
The mark [9] stands for this setting: Fig.1b, concentration(nM) 2.04576.
[10] abbreviates: Fig.1b, concentration(nM) 2.52288.
[11] abbreviates: Fig.1d, concentration(nM) 0.0021442.
Setting [12] is: Fig.1d, concentration(nM) 0.061236.
Where [13] appears, read: Fig.1d, concentration(nM) 0.103.
Setting [14] is: Fig.1d, concentration(nM) 0.59176.
Where [15] appears, read: Fig.1d, concentration(nM) 1.19382.
Setting [16] is: Fig.1d, concentration(nM) 1.79588.
The mark [17] stands for this setting: Fig.1d, concentration(nM) 2.39794.
[18] abbreviates: concentration column prints 2.52288.

`Cc1nnn(C)c1-c1cnc2c3cc4c(cc3n([C@H](c3ccccc3)C3CCOCC3)c2c1)C(=O)N(C)C4` [NHWD-530]: the “Biochemical activity against BRD4 (BD1 + BD2)” value (“Biochemical activity” below) was 0.9223 and 6.575 in assay [1] (setting [4]); 8.361 and 5.3853 in assay [1] (setting [5]); 7.766 and 14.6266 in assay [1] (setting [6]); 25.6174 and 20.5594 in assay [1] (setting [7]); 58.197 in assay [1] (setting [8]); 88.9914 and 87.355 in assay [1] (setting [9]). The “Biochemical activity” value in assay [1] (setting [10]) is 96.1321 and 98.9586; in assay [1] (Fig.1b, concentration(nM) 3) it was 102.231 and 101.636. Also, the IC50 in assay [1] turned out to be 28.5 nM.
Regarding `Cc1nnn(C)c1-c1cnc2c3cc4c(cc3n([C@H](c3ccccc3)C3CCOCC3)c2c1)CN(C)C4=O` [NHWD-540], the “Biochemical activity” value in assay [1] (setting [4]) was 5.534 and 1.544; in assay [1] (setting [5]), 6.278 and 5.237; in assay [1] (setting [6]), 11.7822 and 11.931; in assay [1] (setting [7]), 36.626 and 29.039; in assay [1] (setting [8]), 74.1149 and 79.0241; in assay [1] (setting [9]), 94.7932 and 97.1735. The “Biochemical activity” value in assay [1] (setting [10]) is 100.446 and 100.744; in assay [1] (Fig.1b, concentration(nM) 3) it was 101.488 and 101.636. Further, the IC50 in assay [1] is 18.1 nM.
As for `Cc1nnn(C)c1-c1cnc2c3c4c(ccc3n([C@H](c3ccccc3)C3CCOCC3)c2c1)C(=O)N(C)C4` [NHWD-560], the “Biochemical activity” value was 10.1562 and 13.125 in assay [1] (setting [4]); 5 and 10.625 in assay [1] (setting [5]); 14.5312 and 15.4688 in assay [1] (setting [6]); 33.5938 and 32.5 in assay [1] (setting [7]); 66.25 and 68.125 in assay [1] (setting [8]); 95.625 and 95 in assay [1] (setting [9]). The “Biochemical activity” value is 101.719 in assay [1] (setting [10]); 102.344 and 102.5 in assay [1] (Fig.1b, concentration(nM) 3). For the same molecule, in assay [1], the IC50 came to 19.5 nM.
On to `Cc1nnn(C)c1-c1cnc2c3c4ccn(C)c4ccc3n([C@H](c3ccccc3)C3CCOCC3)c2c1` [NHWD-830], for which the “Biochemical activity” value is 0.8628 and 1.4579 in assay [1] (setting [4]); 6.575 and 2.559 in assay [1] (setting [5]); 10.2946 and 5.683 in assay [1] (setting [6]); 69.3038 and 62.4692 in assay [1] (setting [7]); 79.3216 and 83.6358 in assay [1] (setting [8]); 95.8346 and 94.942 in assay [1] (setting [9]). Moreover, the “Biochemical activity” value in assay [1] (setting [10]) was 100.744 and 99.5537; in assay [1] (Fig.1b, concentration(nM) 3) it was 101.346 and 101.785. For the same molecule, the IC50 in assay [1] came out at 10.2 nM.
Take `Cc1nnn(C)c1-c1cnc2c3cc4c(cnn4C)cc3n([C@H](c3ccccc3)C3CCOCC3)c2c1` [NHWD-840]: the “Biochemical activity” value in assay [1] (setting [11]) was 6.699 and 2.7152; in assay [1] (setting [12]), 2.407 and 5.845; in assay [1] (setting [13]), 1.577 and 18.3661; in assay [1] (setting [14]), 2.146 and 9.5447; in assay [1] (setting [15]) it was 15.5205 and 30.3178; in assay [1] (setting [16]) it was 82.9618 and 83.2464. For the same molecule, the “Biochemical activity” value in assay [1] (setting [17]) was 99.4664 and 98.6128; in assay [1] (Fig.1d, concentration(nM) 3), 101.174 and 100.889. Further, the IC50 in assay [1] was 28.3 ± 1.45 nM; in assay [2], 38 ± 1.58 nM; in assay [3], 31.6 ± 1.5 nM. Also, the “Cellular activity in SCLCs (H211), alamarBlue” value (“Cellular activity in SCLCs” below) in assay [2] (concentration 0.0169701) is 11.62 and 22.01; in assay [2] (concentration 0.0398488), 7.96 and 8.04; in assay [2] (concentration 0.137272) it was 3.53 and 13.11; in assay [2] (concentration 0.614394), 11.24 and 2.1; in assay [2] (concentration 1.09152), 18.38 and 12.66; in assay [2] (concentration 1.56864), 47.24 and 47.49. The “Cellular activity in SCLCs” value is 87.44 and 87.79 in assay [2] (concentration 2.04576); 95.52 and 94.98 in assay [2] (concentration 3); 93.3 and 93.73 in assay [2] (setting [18]). The “Cellular activity in TNBCs (MDA-MB231), alamarBlue” value (“Cellular activity in TNBCs” below) was 9.03 and 8.43 in assay [3] (concentration 0.15); 17.61 and 17.32 in assay [3] (concentration 0.6); 35.92 and 25.61 in assay [3] (concentration 1); 53.39 and 55.36 in assay [3] (concentration 1.5); 70.13 and 73.2 in assay [3] (concentration 2); 91.51 and 91.02 in assay [3] (concentration 2.5). The “Cellular activity in TNBCs” value was 94.65 and 95.19 in assay [3] (concentration 3); 6.21 and 5.27 in assay [3] (concentration -0.3); 2.77 and 4.58 in assay [3] (concentration -0.9).
Consider `Cc1nnn(C)c1-c1cnc2c3cc4cnn(C)c4cc3n([C@H](c3ccccc3)C3CCOCC3)c2c1` [NHWD-850], for which the “Biochemical activity” value is 0.1541 and 1.269 in assay [1] (setting [11]); 12.3903 and 11.5366 in assay [1] (setting [12]); 4.399 and 8.952 in assay [1] (setting [13]); 7.837 and 3 in assay [1] (setting [14]); 31.456 and 32.5943 in assay [1] (setting [15]); 96.9054 and 95.198 in assay [1] (setting [16]). Also, the “Biochemical activity” value is 100.036 and 100.889 in assay [1] (setting [17]); 99.751 and 100.889 in assay [1] (Fig.1d, concentration(nM) 3). The IC50 is 20.6 ± 1.31 nM in assay [1], 16 ± 1.21 nM in assay [2] and 14.5 ± 1.16 nM in assay [3]. Further, the “Cellular activity in SCLCs” value in assay [2] (concentration 0.0169701) is 0.35 and 1.87; in assay [2] (concentration 0.0398488) it was 0.32 and 1.84; in assay [2] (concentration 0.137272) it was 0.23 and -0.84; in assay [2] (concentration 0.614394), 7.16 and 14.38; in assay [2] (concentration 1.09152), 35.94 and 34.48; in assay [2] (concentration 1.56864), 89.1 and 88.35. For the same molecule, the “Cellular activity in SCLCs” value in assay [2] (concentration 2.04576) is 90.09; in assay [2] (concentration 3) it was 89.78 and 89.22; in assay [2] (setting [18]), 89.03 and 89.34. Further, the “Cellular activity in TNBCs” value in assay [3] (concentration 0.15) was 15.75 and 17.7; in assay [3] (concentration 0.6), 25.28 and 23.6; in assay [3] (concentration 1), 46.11 and 48.16; in assay [3] (concentration 1.5), 71.17 and 69.3; in assay [3] (concentration 2) it was 82.44 and 82.62; in assay [3] (concentration 2.5), 86.67 and 86.03. The “Cellular activity in TNBCs” value was 88.63 and 88.4 in assay [3] (concentration 3); 7.16 and 12.83 in assay [3] (concentration -0.3); 4.44 and 11.66 in assay [3] (concentration -0.9).
